Test results published in patent US10272096B2, “Methods and systems of treating wounds” (priority 2013, dated 2019).

Tests used:
[1] = test system: lung epithelial cells, primary human lung fibroblasts, cancer cell model; experiment: In vitro wound healing in several different cell systems; assay type: cell-based
Source text: . The inventors established this optimal dose range in order to provide a reasonable dose for actual treatment of airway injury. Mechanistically, the inventors determined that improved wound healing was from increased cell migration and not cell proliferation (division). […]

U2OS cells = assay type: cell-based, human
Method: U2OS human osteosarcoma cells were obtained from the American Type Tissue Culture Collection (ATCC, Rockville, Md.). Cells were grown in T-75 flasks (Corning, Fisher, Pittsburgh, Pa.) in a 37° C., 5% CO2/95% air incubator using Dulbecco's Modified Eagle's Medium (DMEM) and supplemented with 10% fetal bovine serum (Mediatach, Manassas, Va.). Cells were trypsinized with TrypLE (Invitrogen Life Technologies, Carsbad, Calif.), seeded into 6-well or 96-well plates (Corning, Fisher, Pittsburgh, Pa.) and grown to confluence.
Cells were exposed to LLLT for 30 min and 1 h later received a single treatment of 5 μM NO-Cbi.
The scratch wound closure assay has been previously described (see Spitler et al., Nitrosyl-cobinamide (NO-Cbi), a new nitric oxide donor, improves wound healing through cGMP/cGMP-dependent protein kinase, Cell Signal 2013, 25(12):2374-2382). Briefly 600-700 μm wide single line scratches were mechanically generated in a cell monolayer by a 200 μl plastic tip across the length of the well. Cells from both edges of the wound migrated into the open area, which was measured at 24 h. The change in area was quantified using a custom Mat Lab script. The wound closure rate was determined by plotting changes in the wound area as a function of time.

Erk1/2 = experiment: Western blot analysis of phospho-Erk1/2 in U2OS cells; assay type: cell-based, human
Method: Cells were lysed and harvested 10 min after LLLT treatment in Laemmli buffer heated to 100° C. (BioRad, Hercules, Calif.), and lysates were sonicated and resolved on SDS-PAGE gels. The proteins were transferred to a nitrocellulose membrane (GE Healthcare Life Sciences, Pittsburgh) and blocked for 1 h with Pierce Protein-Free Blocking buffer (Thermo Scientific, Rockford, Ill.). They were incubated overnight with antibodies for phospho-ERK1/2(Thr202/Tyr203) at 1:10,000 in TBS/5% BSA (Cell Signaling Technology). Membranes were then incubated with an anti-rabbit-HRP antibody at 1:2000 for 1 h and developed using a luminol-based chemiluminescent substrate.

A-549 cells = experiment: Mechanical scratch wound assay in A-549 cell monolayer; assay type: cell-based
Method: (A) Mechanical scratch wounds were generated in a monolayer of A-549 cells, and 30 hours later, the area of the wound was evaluated by custom computer-based software. At 0, 4, 9, and 24 hour post wounding, cells received fresh medium with 5 uM of NO-Cbl, Deta-NONOate, sodium nitroprusside (SNP), or fresh medium alone. (B) The normalized average wound area was determined by dividing the final wound area by the initial wound area and averaging replicates. Data represent the mean+/−SEM of at least 3 separate experiments with an n=12 in each experiment.

In the case of nitrosyl-cobinamide [NO-Cbi], the “in vitro wound healing” value [1] is reported as “improved in vitro wound healing”, the “wound healing (normalized wound area at 24 h)” value (U2OS cells) is reported as “enhance wound healing” and the “wound healing, combination with LLLT” value (U2OS cells) is reported as “markedly enhanced wound healing compared to either treatment alone”. The “Erk1/2 activation (phosphorylation)” value (Erk1/2) was “increased Erk1/2 activation”, the “Erk1/2 activation, combination with LLLT” value (Erk1/2) was “same degree of Erk1/2 activation as NO-Cbi alone” and the “effectiveness on a molar basis compared with other NO donors” value (A-549 cells) was “more effective than two other NO donors”. For the same substance, the “wound healing and migration (normalized wound area)” value (A-549 cells) was “increases wound healing and migration”.
